The values that follow come from ChEMBL document CHEMBL1201862, “PubChem BioAssay data set” (2004).

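Values below derive from 48-hour exposures of cells grown in 96-well plates, with endpoints linearly interpolated between the two concentrations bracketing the appropriate inhibition level. GI50: concentration for 50% inhibition of growth.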 Calls of active or inactive are those of the source. Rule as the data show it: active = GI50 up to about 1.1 µM and inactive = higher.

Assay in all cases: inhibition of tumour cell growth, NCI panel, 48 h
Assay [1] has as its system SK-MEL-28.
The test system of assay [2] is UACC-257.
Assay [3] relates to OVCAR-3.
The test system of assay [4] is DU-145.
The subject of assay [5] is HOP-62.
Assay [6] concerns UACC-62.
In assay [7] the test system is SF-295.
Assay [8] concerns HL-60.
Assay [9] deals with NCI-H460.
Assay [10] concerns M14.
Assay [11] deals with COLO 205.
Assay [12] has as its system SW-620.
For assay [13], the system named is LOX IMVI.
Assay [14] concerns Malme-3M.
Assay [15] relates to MDA-MB-231.
Assay [16] concerns MDA-N.
The subject of assay [17] is IGROV-1.
The subject of assay [18] is EKVX.
In assay [19] the test system is RXF 393.
Assay [20] concerns OVCAR-4.

`Nc1cccc(/C=C/C(=O)N2CCN(CCOC(c3ccccc3)c3ccccc3)CC2)c1`: the GI50 in [1] is 15 µM (inactive); in assay [2] it was 17.7 µM (inactive); in assay [3], 16.6 µM (inactive); in assay [4], 15.1 µM (inactive); in [5] it was 17.7 µM (inactive); in assay [6] it was 16.1 µM (inactive). Moreover, the GI50 in assay [7] is 17.3 µM (inactive); in assay [8], 11.2 µM (inactive); in assay [9], 16.9 µM (inactive); in assay [10] it was 13.2 µM (inactive); in [11], 12.7 µM (inactive); in assay [12], 15.7 µM (inactive). Moreover, the GI50 was 17.9 µM (inactive) in assay [13]; 16.7 µM (inactive) in [14]; 15.7 µM (inactive) in [15]; 17.8 µM (inactive) in assay [16]; 18.2 µM (inactive) in assay [17]; 18.7 µM (inactive) in [18]. In addition, the values for the GI50 in assay [19] and in assay [20] were 15.3 µM (inactive) and 12.4 µM (inactive), respectively.

With `Cc1cnc2nc(-c3cccc4ccccc34)cc(O)c2c1`, the GI50 was 0.000619 µM (active) in assay [1]; 0.000254 µM (active) in assay [2]; 0.000281 µM (active) in [3]; 0.00394 µM (active) in [4]; 0.0248 µM (active) in [5]; 0.000518 µM (active) in [6]. Further, the GI50 in [7] is 0.000887 µM (active); in [8], 0.000232 µM (active); in assay [9], 0.00303 µM (active); in assay [10], 0.000711 µM (active); in assay [11], 0.000708 µM (active); in assay [12] it was 0.000449 µM (active). The GI50 in assay [13] is 0.000819 µM (active); in assay [14], 0.000289 µM (active); in assay [15] it was 0.00493 µM (active); in assay [16] it was 0.000216 µM (active); in [17], 0.00552 µM (active); in [18] it was 0.00282 µM (active). Besides, the results for the GI50 in [19] and in assay [20] were 0.000346 µM (active) and 16.4 µM (inactive), respectively.

For `COc1cccc(/C=C2\CCC(CN(C)C)C2=O)c1` (stereo not given), the GI50 in [1] is 3.03 µM (inactive); in [2] it was 3.85 µM (inactive); in [3], 5.04 µM (inactive); in assay [4], 2.74 µM (inactive); in [5], 12.1 µM (inactive); in assay [6], 8.24 µM (inactive). Besides, the GI50 was 16.6 µM (inactive) in assay [7]; 0.638 µM (active) in [8]; 16.2 µM (inactive) in assay [9]; 3.6 µM (inactive) in assay [10]; 4.35 µM (inactive) in assay [11]; 2.21 µM (inactive) in [12]. In addition, the GI50 in [13] was 1.73 µM (inactive); in assay [14] it was 5.81 µM (inactive); in assay [15], 4.66 µM (inactive); in [16] it was 4.73 µM (inactive); in assay [17] it was 8.47 µM (inactive); in assay [18], 19.3 µM (inactive). The GI50 in [19] was 6.07 µM (inactive); in [20], 9.82 µM (inactive).

Consider `COC(=O)[C@]1(c2cc3ccccc3[nH]2)CC2CN(C(=O)OCc3ccccc3)C1CC2=O` (stereo not given in full), for which the GI50 was 39.3 µM (inactive) in [1]; 36.3 µM (inactive) in assay [2]; 28.8 µM (inactive) in assay [3]; 38.8 µM (inactive) in [4]; 43.2 µM (inactive) in assay [5]; 17.1 µM (inactive) in assay [6]. In addition, the GI50 in assay [7] is 25.4 µM (inactive); in assay [8] it was 16.4 µM (inactive); in assay [9], 24.4 µM (inactive); in assay [10], 30.5 µM (inactive); in assay [11], 16.5 µM (inactive); in [12], 29.6 µM (inactive). In addition, the GI50 is 22.5 µM (inactive) in assay [13]; 20.7 µM (inactive) in assay [14]; 12.8 µM (inactive) in assay [15]; 24.8 µM (inactive) in assay [16]; 29.7 µM (inactive) in [17]; 17.1 µM (inactive) in [18]. Moreover, the GI50 in [19] was 16.2 µM (inactive); in [20], 28.1 µM (inactive).

With `[N-]=[N+]=NC1OC(=O)C(Cl)=C1N=P(c1ccccc1)(c1ccccc1)c1ccccc1` (stereo not given), the GI50 in assay [1] is > 10 µM (inactive); in assay [2], > 10 µM (inactive); in assay [3], 5.9 µM (inactive); in [4] it was > 10 µM (inactive); in assay [5], > 10 µM (inactive); in assay [6], > 10 µM (inactive). For the same compound, the GI50 in assay [7] was 7.24 µM (inactive); in assay [8], 3.77 µM (inactive); in assay [9] it was > 10 µM (inactive); in assay [10], 6.98 µM (inactive); in assay [11] it was 9.27 µM (inactive); in assay [12], > 10 µM (inactive). Besides, the GI50 is 7.78 µM (inactive) in assay [13]; > 10 µM (inactive) in assay [14]; 6.44 µM (inactive) in [15]; 9.27 µM (inactive) in assay [16]; > 10 µM (inactive) in assay [17]; > 10 µM (inactive) in assay [18]. The GI50 in assay [19] was > 10 µM (inactive); in assay [20] it was 9.71 µM (inactive).

On to `COC(=O)[C@H]1[C@@H](C(C)C)O[C@@H](C(C)C)O[C@H]1C(F)(F)F`, for which the GI50 in assay [1], in assay [2], in [3], in [4], in assay [5] and in [6] was > 100 µM (inactive) each time. Besides, the GI50 in [7], in assay [8], in [9], in [10], in assay [11] and in [12] was > 100 µM (inactive) each time. Besides, the GI50 is > 100 µM (inactive) in assay [13]; > 100 µM (inactive) in [14]; > 100 µM (inactive) in [15]; > 100 µM (inactive) in [16]; 37.9 µM (inactive) in [17]; > 100 µM (inactive) in [18]. Besides, the GI50 in assay [19] and in assay [20] was > 100 µM (inactive) in each case.

Take `CN(C)CCNc1nc2ccccc2c2c1CCCC2`: the GI50 in assay [1] was 17.7 µM (inactive); in [2] it was 15.1 µM (inactive); in assay [3] it was 30.8 µM (inactive); in [4], 33.9 µM (inactive); in assay [5], 16.5 µM (inactive); in [6] it was 16.4 µM (inactive). Moreover, the GI50 in assay [7] was 15.9 µM (inactive); in assay [8] it was 14.8 µM (inactive); in [9] it was 16 µM (inactive); in [10], 16.5 µM (inactive); in [11], 22.9 µM (inactive); in assay [12], 26.2 µM (inactive). For the same compound, the GI50 in [13] is 17.8 µM (inactive); in [14], 16.3 µM (inactive); in assay [15], 14.7 µM (inactive); in assay [16], 16.1 µM (inactive); in [17], 17.2 µM (inactive); in assay [18] it was 37.9 µM (inactive). The GI50 in [19] was 8.65 µM (inactive); in assay [20] it was 48.9 µM (inactive).
